# Earlier results, collected in patent US20170119742A1, “MEDICAMENT FOR PREVENTING AND/OR TREATING STRESS DISEASES” (ONO PHARMACEUTICAL CO., LTD., priority 2014, published 2017).
# Biological target: brain NK1 receptors (Homo sapiens, UniProt P25103)
# Conditions: Non-Patent Document 5; cited from earlier work
# brain NK1 receptors, sequence (P25103 whole entry): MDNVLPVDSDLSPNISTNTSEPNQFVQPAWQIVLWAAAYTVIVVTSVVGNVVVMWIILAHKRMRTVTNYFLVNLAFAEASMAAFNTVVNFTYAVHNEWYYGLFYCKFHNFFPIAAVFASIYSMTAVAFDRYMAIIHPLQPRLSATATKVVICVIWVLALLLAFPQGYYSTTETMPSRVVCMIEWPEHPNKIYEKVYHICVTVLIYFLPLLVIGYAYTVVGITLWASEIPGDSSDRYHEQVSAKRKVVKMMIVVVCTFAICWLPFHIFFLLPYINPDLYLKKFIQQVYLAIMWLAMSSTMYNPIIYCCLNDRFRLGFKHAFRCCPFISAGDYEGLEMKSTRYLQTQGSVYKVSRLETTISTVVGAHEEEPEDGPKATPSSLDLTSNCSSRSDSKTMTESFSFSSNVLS
smiles,measurement,value
C[C@@H](O[C@H]1OCCN(Cc2n[nH]c(=O)[nH]2)[C@H]1c1ccc(F)cc1)c1cc(C(F)(F)F)cc(C(F)(F)F)c1 [aprepitant],brain NK1 receptor occupancy necessary for expressing the efficacy,≥ 90%
same,plasma concentration at 90% or more brain NK1 receptor occupancy,≥ 100 ng/mL
